In brackets after ≈: the same amount, converted by molar mass.
Experiments:
[1] = tested on: Staphylococcus albus CICC 20237 (S. albus); experiment: MIC, microplate dilution method; format: cell-based; conditions: Gram-positive; Mueller-Hinton broth, 37 °C, 18–24 h; read-out: MIC S. albus
Excerpt: (§1) According to microplate dilution method, all the prepared compounds were screened for their in vitro antibacterial activity. The investigation included three representative Gram-positive strains, including Staphylococcus aureus CICC 10384 (S. aureus), Staphylococcus albus CICC 20237 (S. albus) and methicillinresistant Staphylococcus aureus ATCC 43300 (MRSA), and two representative Gram-negative strains, including Escherichia coli CICC 10389 (E. coli) and Pseudomonas aeruginosa CVCC 3359 (PA). Harmine and cinnamic acid were used as reference drugs.
(§2) The antibacterial efficiency of all prepared compounds was determined using the microplate dilution method. All compounds were prepared into different concentrations of stock solution according to their solubility. The compounds were added to the 96 well plate and serially diluted in Mueller-Hinton broth. Three Gram-positive strains (S. aureus, S. albus and MRSA) and two Gram-negative strains (E. coli and PA) were cultivated and added to the 96 well plate. The initial concentration of bacteria should be higher than 10^5 CFU/mL. The samples were incubated at 37 °C for 18–24 h. The MIC was determined for compounds by observing change of clarity in the broth. The same procedure was repeated in triplicate.

[2] = tested on: Staphylococcus aureus CICC 10384 (S. aureus); experiment: MIC, microplate dilution method; format: cell-based; conditions: Gram-positive, Mueller-Hinton broth, 37 °C, 18–24 h, read-out: MIC S. aureus
Excerpt: as §1, §2

[3] = tested on: methicillinresistant Staphylococcus aureus ATCC 43300 (MRSA); experiment: MIC, microplate dilution method; format: cell-based; conditions: Gram-positive, Mueller-Hinton broth, 37 °C, 18–24 h, read-out: MIC MRSA
Excerpt: as §1, §2

[4] = tested on: Escherichia coli CICC 10389 (E. coli); experiment: MIC, microplate dilution method; format: cell-based; conditions: Gram-negative, Mueller-Hinton broth, 37 °C, 18–24 h, read-out: MIC E. coli
Excerpt: as §1, §2

[5] = tested on: Pseudomonas aeruginosa CVCC 3359 (PA); experiment: MIC, microplate dilution method; format: cell-based; conditions: Gram-negative, Mueller-Hinton broth, 37 °C, 18–24 h, read-out: MIC PA
Excerpt: as §1, §2

S. aureus (CICC 10384) = experiment: Bactericidal time-kill kinetics; format: cell-based, Staphylococcus aureus
Experimental: The bacteria S. aureus was prepared in Muellere Hinton broth at 37 °C for 6 h with shaking. The solution of 3c (1 × MIC and 6 × MIC), 5a (1 × MIC and 6 × MIC), harmine (1 × MIC and 6 × MIC) and saline (served as a control group) were separately added to the bacterial suspension so that the final bacterial concentration were 10^6~10^7 CFU/mL. At the predetermined time point (0, 0.5, 2, 4, 6, 12 and 24 h), […] of aliquots were serially diluted in normal saline, plated on sterile Muellere Hinton agar plates, and incubated at 37 °C for 24 h. After incubation, the viable colonies were counted and represented as log10 (CFU/mL). The same procedure was repeated in triplicate.
Figure 3 Time-kill kinetics of compound 3c (A) and 5a (B) at 1 × and 6 × MIC against S. aureus (CICC 10384).

SMILES	MIC [1]	MIC [2]	MIC [3]	MIC [4]	MIC [5]	melting point	time to 4-log10 reduction (S. aureus (CICC 10384); 1 × MIC)	time to completely kill the bacteria (S. aureus (CICC 10384); 6 × MIC)
O=C(O)/C=C/c1ccccc1 [Cinnamic acid]	1120 µg/mL (≈ 7590 µM)	1120 µg/mL (≈ 7590 µM)	1120 µg/mL (≈ 7590 µM)	1120 µg/mL (≈ 7590 µM)	1120 µg/mL (≈ 7590 µM)	–	–	–
COc1ccc(/C=C/C(=O)OCCCn2c3cc(OC)ccc3c3ccnc(C)c32)cc1 [Compound 3a, 3-(7-Methoxy-1-methyl-9H-pyridine [3,4-b]indole-9-yl)propyl(E)-3-(4-methoxyphenyl) acrylate]	650 µg/mL (≈ 1510 µM)	325 µg/mL (≈ 755 µM)	1300 µg/mL (≈ 3020 µM)	650 µg/mL (≈ 1510 µM)	325 µg/mL (≈ 755 µM)	133.2 to 133.9 °C	–	–
COc1ccc2c3ccnc(C)c3n(CCCOC(=O)/C=C/c3cc(OC)c(OC)c(OC)c3)c2c1 [Compound 3b, 3-(7-Methoxy-1-methyl-9H-pyridine [3,4-b]indole-9-yl) propyl (E)-3-(3,4,5-trimethoxyphenyl) acrylate]	638 µg/mL (≈ 1300 µM)	319 µg/mL (≈ 650 µM)	638 µg/mL (≈ 1300 µM)	638 µg/mL (≈ 1300 µM)	319 µg/mL (≈ 650 µM)	102.6 to 104.2 °C	–	–
COc1ccc2c3ccnc(C)c3n(CCCOC(=O)/C(=C/c3cc(OC)c(OC)c(OC)c3)c3ccc(OC)c(OC)c3)c2c1 [Compound 3d, 3-(7-Methoxy-1-methyl-9H-pyridine [3,4-b]indole-9-yl) propyl (E)-2-(3,4-dimethoxyphenyl)-3-(3,4,5-trimethoxyphenyl) acrylate]	725 µg/mL (≈ 1160 µM)	181 µg/mL (≈ 289 µM)	362 µg/mL (≈ 578 µM)	725 µg/mL (≈ 1160 µM)	362 µg/mL (≈ 578 µM)	173.6 to 175.2 °C	–	–
COc1ccc(/C=C/C(=O)OCCCCn2c3cc(OC)ccc3c3ccnc(C)c32)cc1 [Compound 4a, 4-(7-Methoxy-1-methyl-9H-pyridine [3,4-b]indole-9-yl) butyl (E)-3-(4-methoxyphenyl) acrylate]	305 µg/mL (≈ 686 µM)	305 µg/mL (≈ 686 µM)	610 µg/mL (≈ 1370 µM)	152 µg/mL (≈ 343 µM)	305 µg/mL (≈ 686 µM)	118.7 to 120.2 °C	–	–
COc1ccc2c3ccnc(C)c3n(CCCCOC(=O)/C=C/c3cc(OC)c(OC)c(OC)c3)c2c1 [Compound 4b, 4-(7-Methoxy-1-methyl-9H-pyridine [3,4-b]indole-9-yl) butyl (E)-3-(3,4,5-trimethoxyphenyl) acrylate]	225 µg/mL (≈ 446 µM)	112 µg/mL (≈ 223 µM)	450 µg/mL (≈ 892 µM)	450 µg/mL (≈ 892 µM)	450 µg/mL (≈ 892 µM)	95.7 to 96.3 °C	–	–
COc1ccc2c3ccnc(C)c3n(CCCCOC(=O)/C=C/c3ccccc3[N+](=O)[O-])c2c1 [Compound 4c, 4-(7-Methoxy-1-methyl-9H-pyridine [3,4-b]indole-9-yl) butyl (E)-3-(2-nitrophenyl) acrylate]	1550 µg/mL (≈ 3370 µM)	1550 µg/mL (≈ 3370 µM)	1550 µg/mL (≈ 3370 µM)	775 µg/mL (≈ 1690 µM)	388 µg/mL (≈ 843 µM)	130.9 to 132.2 °C	–	–
COc1ccc2c3ccnc(C)c3n(CCCCOC(=O)/C(=C/c3cc(OC)c(OC)c(OC)c3)c3ccc(OC)c(OC)c3)c2c1 [Compound 4d, 4-(7-Methoxy-1-methyl-9H-pyridine [3,4-b]indole-9-yl) butyl (E)-2-(3,4-dimethoxyphenyl)-3-(3,4,5-trimethoxyphenyl) acrylate]	53.1 µg/mL (≈ 82.9 µM)	26.6 µg/mL (≈ 41.5 µM)	106 µg/mL (≈ 166 µM)	212 µg/mL (≈ 332 µM)	212 µg/mL (≈ 332 µM)	95.7 to 97.4 °C	–	–
COc1ccc(/C=C/C(=O)OCCCCCn2c3cc(OC)ccc3c3ccnc(C)c32)cc1 [Compound 5a, 5-(7-Methoxy-1-methyl-9H-pyridine [3,4-b]indole-9-yl) amyl (E)-3-(4-methoxyphenyl) acrylate]	15.6 µg/mL (≈ 34.1 µM)	15.6 µg/mL (≈ 34.1 µM)	62.5 µg/mL (≈ 136 µM)	250 µg/mL (≈ 545 µM)	125 µg/mL (≈ 273 µM)	91.1 to 92.3 °C	about 24 h	≤ 12 h
COc1ccc2c3ccnc(C)c3n(CCCCCOC(=O)/C=C/c3cc(OC)c(OC)c(OC)c3)c2c1 [Compound 5b, 5-(7-Methoxy-1-methyl-9H-pyridine [3,4-b]indole-9-yl) amyl (E)-3-(3,4,5-trimethoxyphenyl) acrylate]	2280 µg/mL (≈ 4390 µM)	1140 µg/mL (≈ 2190 µM)	2280 µg/mL (≈ 4390 µM)	1140 µg/mL (≈ 2190 µM)	1140 µg/mL (≈ 2190 µM)	103.7 to 104.7 °C	–	–
COc1ccc2c3ccnc(C)c3n(CCCCCOC(=O)/C=C/c3ccccc3[N+](=O)[O-])c2c1 [Compound 5c, 5-(7-Methoxy-1-methyl-9H-pyridine [3,4-b]indole-9-yl) amyl (E)-3-(2-nitrophenyl) acrylate]	110 µg/mL (≈ 232 µM)	110 µg/mL (≈ 232 µM)	220 µg/mL (≈ 465 µM)	220 µg/mL (≈ 465 µM)	220 µg/mL (≈ 465 µM)	127.4 to 130 °C	–	–
COc1ccc2c3ccnc(C)c3n(CCCCCOC(=O)/C(=C/c3cc(OC)c(OC)c(OC)c3)c3ccc(OC)c(OC)c3)c2c1 [Compound 5d, 5-(7-Methoxy-1-methyl-9H-pyridine [3,4-b]indole-9-yl) pentyl (E)-2-(3,4-dimethoxyphenyl)-3-(3,4,5-trimethoxyphenyl) acrylate]	95.3 µg/mL (≈ 146 µM)	23.8 µg/mL (≈ 36.4 µM)	95.3 µg/mL (≈ 146 µM)	762 µg/mL (≈ 1160 µM)	381 µg/mL (≈ 582 µM)	117.4 to 119.9 °C	–	–
COc1ccc(/C=C/C(=O)OCCCCCCn2c3cc(OC)ccc3c3ccnc(C)c32)cc1 [Compound 6a, 6-(7-Methoxy-1-methyl-9H-pyridine [3,4-b]indole-9-yl) hexyl (E)-3-(4-methoxyphenyl) acrylate]	166 µg/mL (≈ 350 µM)	82.8 µg/mL (≈ 175 µM)	331 µg/mL (≈ 701 µM)	662 µg/mL (≈ 1400 µM)	331 µg/mL (≈ 701 µM)	88.7 to 90.4 °C	–	–
COc1ccc2c3ccnc(C)c3n(CCCCCCOC(=O)/C=C/c3cc(OC)c(OC)c(OC)c3)c2c1 [Compound 6b, 6-(7-Methoxy-1-methyl-9H-pyridine [3,4-b]indole-9-yl) hexyl (E)-3-(3,4,5-trimethoxyphenyl) acrylate]	152 µg/mL (≈ 286 µM)	152 µg/mL (≈ 286 µM)	306 µg/mL (≈ 574 µM)	305 µg/mL (≈ 573 µM)	305 µg/mL (≈ 573 µM)	73.7 to 73.9 °C	–	–
COc1ccc2c3ccnc(C)c3n(CCCCCCOC(=O)/C=C/c3ccccc3[N+](=O)[O-])c2c1 [Compound 6c, 6-(7-Methoxy-1-methyl-9H-pyridine [3,4-b]indole-9-yl) hexyl(E)-3-(2-nitrophenyl) acrylate]	750 µg/mL (≈ 1540 µM)	375 µg/mL (≈ 769 µM)	1500 µg/mL (≈ 3080 µM)	750 µg/mL (≈ 1540 µM)	750 µg/mL (≈ 1540 µM)	117.3 to 119.9 °C	–	–
COc1ccc2c3ccnc(C)c3n(CCCCCCOC(=O)/C(=C/c3cc(OC)c(OC)c(OC)c3)c3ccc(OC)c(OC)c3)c2c1 [Compound 6d, 6-(7-Methoxy-1-methyl-9H-pyridine [3,4-b]indole-9-yl) hexyl (E)-2-(3,4-dimethoxyphenyl)-3– (3,4,5-trimethoxyphenyl) acrylate]	53.1 µg/mL (≈ 79.4 µM)	53.1 µg/mL (≈ 79.4 µM)	212 µg/mL (≈ 318 µM)	212 µg/mL (≈ 318 µM)	212 µg/mL (≈ 318 µM)	113.1 to 115 °C	–	–

Reference: PMC8400480, “Synthesis, Antibacterial and Pharmacokinetic Evaluation of Novel Derivatives of Harmine N^9-Cinnamic Acid” (Molecules, 2021)
